Test results reported in patent publication US8591892B2, “FTY720 increases CD74 expression and sensitizes cancer cells to anti-CD74 antibody-mediated cell death” (The Ohio State University, priority 2011, dated 2013).
“Also recorded” adds a separate entry of the source. Like-named read-outs stand apart in the source and are kept apart here.

How the values were obtained:
[1] = tested on: MCL cell lines (Jeko-1, Mino, UPN-1, Z-138); assay: Immunoblot for LC3-I/LC3-II (autophagic flux); format: cell-based, human
From the text: (§1) FIG. 1. […] Actin was used as loading control. […] Actin was used as loading control.

[2] = tested on: MCL cell lines; assay: Cytotoxicity of OSU-2S; format: cell-based
[3] = tested on: MCL cell lines (Jeko-1, Mino, UPN-1, Z-138); assay: Immunoblot for p62; format: cell-based, human; conditions: UPN-1 and Z-138 cells, 24 hours
From the text: as §1

[4] = tested on: Jeko-1 and Mino cell lines; assay: Transmission electron microscopy of ultrastructural changes; format: cell-based, human; conditions: Jeko and Mino cells; chloroquine 40 μM, FTY720 10 μM
Procedure: Monolayer cells were grown in chamber slides in medium containing chloroquine (40 μM) or FTY720 (10 μM) for 12 hours. Prior to processing, the cells were fixed for 30 min in 2.5% glutaraldehyde in 0.1 M phosphate buffer pH 7.4. […] Images were obtained with a PEI TECHNAI™ G2 Spirit Transmission Electron Microscope.
We next examined ultrastructural morphologic changes in Jeko-1 and Mino cell lines treated with FTY720 using TEM.

[5] = tested on: surface CD74 on Jeko-1 and Mino cells; assay: CD74-FITC staining and flow cytometry (CD74 MFI); format: cell-based, human; conditions: 8 and 24 hours, vs untreated control or rapamycin
Procedure: (B) CD74 MFI of MCL cells treated with FTY720, chloroquine or rapamycin at the indicated concentrations after 8 and 24 hours. […] P values are calculated comparing FTY720, chloroquine and rapamycin treatment to the untreated control.
MCL cell lines were treated with FTY720, chloroquine (SIGMA, St Louis, Mo.) or rapamycin (CALBIOCHEM, San Diego, Calif.) for 8 and 24 hours and CD74 mean fluorescence intensity (MFI) was determined relative to a specific isotype control. After treatment, cells (1×10^6) were washed in phosphate-buffered saline (PBS), stained with CD74-FITC (BD BIOSCIENCES, San Jose, Calif.) for 15 minutes at 4° C., then rinsed in PBS and analyzed by flow cytometry (EPICS-XL™; BECKMAN COULTER, Fullerton, Calif.). A total of 10,000 events were collected and analyzed using Windows Multiple Document Interface for Flow Cytometry (WinMDI, Scripps Research Institute, San Diego, Calif.).
To determine the influence of FTY720 treatment on CD74 surface levels, Jeko-1 and Mino cells were incubated with FTY720, chloroquine or rapamycin for 8 and 24 hours. CD74 MFI values were determined by CD74-FITC staining and flow cytometry.

[6] = tested on: Jeko-1 and Mino cells; assay: Acridine orange staining, flow cytometry (lysosomal membrane permeability); format: cell-based, human; conditions: 8 hours, vs untreated control
Procedure: Cells were then stained with AO (1 μg/mL) for 15 minutes. The relative changes in FL1 fluorescence were assessed by flow cytometry. Representative histograms summarizing AO fluorescence intensity of MCL treated with FTY720, chloroquine, rapamycin or combinations are shown (MFI of treated cells is normalized to the untreated controls. (C) Jeko-1 and Mino cells were treated with FTY720 at the indicated concentration in the presence or absence of cathepsin inhibitor III (5 and 10 μM). Cell death was determined by annexin V/PI staining and flow cytometry at 8 hours. Data are shown as percentage of annexin V−/PI− cells (live cells).
To assess lysosomal membrane permeability, FTY720 treated cells were incubated with acridine orange (MOLECULAR PROBES; INVITROGEN).
AO at acidic pH (i.e., lysosomal) fluoresces red, however, when AO leaks into a neutral pH (i.e., cytosolic), it causes an increase in green fluorescence that can be detected by flow cytometry.

[7] = tested on: MCL cell lines (Jeko-1, Mino, UPN-1, Z-138); assay: Confocal microscopy of total cellular LC3; format: cell-based, human
[8] = tested on: RL; assay: Flow cytometry of CD74, HLA-DR, CEACAM5 with directly labeled MAbs, with and without IFN-γ; format: cell-based
Procedure: (§2) Expression of CD74, HLA-DR, and carcinoembryonic antigen (CEACAM5) was determined in untreated cells and cells exposed to 200 U of IFN-γ for 48 h by flow cytometry. Cells were stained with directly labeled MAbs in comparison to a directly labeled human IgG control. Antibodies were labeled using ALEXA FLUOR® 488 (Invitrogen, Carlsbad, Calif.). For determination of cytoplasmic antigen expression, cells were permeabilized prior to staining using the BD CYTOFIX/CYTOPERM™ kit (BD Biosciences, San Jose, Calif.).

[9] = tested on: U118; assay: as above; format: cell-based
Procedure: as §2

[10] = tested on: Lovo; assay: as above; format: cell-based
Procedure: as §2

[11] = tested on: FSCCL; assay: as above; format: cell-based
Procedure: as §2

[12] = tested on: Capan-1; assay: as above; format: cell-based
Procedure: as §2

[13] = tested on: KMS11; assay: as above; format: cell-based
Procedure: as §2

[14] = tested on: BxPC-3; assay: as above; format: cell-based
Procedure: as §2

[15] = tested on: U87; assay: as above; format: cell-based
Procedure: as §2

[16] = tested on: TU118; assay: as above; format: cell-based
Procedure: as §2

[17] = tested on: CAG; assay: as above; format: cell-based
Procedure: as §2

[18] = tested on: HT29; assay: as above; format: cell-based
Procedure: as §2

[19] = tested on: Panc-1; assay: as above; format: cell-based
Procedure: as §2

[20] = tested on: Moser; assay: as above; format: cell-based
Procedure: as §2

[21] = tested on: Aspc-1; assay: as above; format: cell-based
Procedure: as §2

[22] = tested on: LS174T; assay: as above; format: cell-based
Procedure: as §2

[23] = biological target: DDD of the RII form of PKA (RIIα dimers) (Homo sapiens, UniProt P13861); conditions: read-out: binding constant for DDD; cited from earlier work
Chain of DDD of the RII form of PKA (RIIα dimers) (P13861 whole entry, canonical isoform): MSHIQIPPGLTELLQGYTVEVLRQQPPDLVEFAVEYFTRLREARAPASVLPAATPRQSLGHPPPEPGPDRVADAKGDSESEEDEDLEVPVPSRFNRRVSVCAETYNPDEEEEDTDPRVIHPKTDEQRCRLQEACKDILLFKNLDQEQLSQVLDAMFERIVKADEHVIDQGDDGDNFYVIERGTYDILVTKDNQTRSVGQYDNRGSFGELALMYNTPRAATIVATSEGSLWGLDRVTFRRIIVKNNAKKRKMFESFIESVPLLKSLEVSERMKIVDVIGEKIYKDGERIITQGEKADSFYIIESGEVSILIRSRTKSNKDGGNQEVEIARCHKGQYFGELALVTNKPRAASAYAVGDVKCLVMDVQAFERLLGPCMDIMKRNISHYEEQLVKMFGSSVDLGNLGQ

[24] = tested on: RII isoform of PKA compared with the RI isoform; conditions: cited from earlier work
[25] = tested on: CD74 in Jeko-1, Mino, UPN-1 and Z-138 cells; assay: Confocal microscopy of total CD74 with rhodamine-conjugated milatuzumab; format: cell-based, human; conditions: Jeko-1 and Mino cells, non-immobilized, 5 μg/ml
Procedure: Cells were stained with an anti-CD74 antibody (FITC conjugated and CD74 MFI was measured by flow cytometry. Representative histograms summarizing the MFI of untreated and treated Jeko-1, Mino, UPN-1 and Z-138 cells are shown. (C) The amount of total cellular CD74 was determined by confocal microscopy. Jeko-1, Mino, UPN-1 and Z-138 cells were treated with FTY720 at the indicated doses, chloroquine (40 μM), rapamycin (10 μM) or the combination of FTY720 and chloroquine, for 4, 8 and 24 hours. CD74 fluorescence intensity was measured in 4 microscopic fields and integrated intensity was averaged relative to the number of cells per field (˜180-220 cells per condition).
MCL cells for confocal fluorescence microscopy were fixed and stained as previously described (Alinari et al., 2011, Blood 117:4530-41). Briefly, after exposure to drugs, cells were made adherent on a microscope slide by centrifugation. Immediately after cytospin, cells were fixed in cold acetone for two minutes. For CD74 immunofluorescence, the cells were incubated with rhodamine-conjugated milatuzumab. […] Nuclei were stained blue with DAPI (Vector laboratories, Burlingame, Calif.). […] For quantification, 4 microscopic fields per slide were analyzed. Nuclei count was performed using an edge constrained marker-controlled watershed for iterative fluorescence microscopic cell image splitting.

In the case of `CCC[C@@](N)(CO)CCc1ccc(OCCCCCC(C)C)cc1` [OSU-2S, (S)-2-amino-2-(4-[(6-methylheptyl)-oxy]phenethyl)pentan-1-ol], the LC3-II levels ([1]; Jeko-1, Mino and Z-138 cell lines, 24 hours, Western blotting) is reported as “increased levels of LC3-II”, the cytotoxicity ([2]; MCL cell lines) is reported as “exhibited cytotoxicity” and the cytotoxic activity ([2]; MCL cell lines and primary cells) is reported as “significant cytotoxic activity”.
In the case of `CCN(CC)CCCC(C)Nc1ccnc2cc(Cl)ccc12` (stereo not drawn) [chloroquine], the p62 levels [3] is reported as “significant increase of p62 levels”, the “ultrastructural morphologic changes (TEM)” value [4] is reported as “increased accumulation of autophagosomes” and the “CD74 MFI (surface)” value [5] is reported as “slight increase of CD74 MFI”. The LC3-II levels [1] was “significant increase in LC3-II levels; also recorded: increased levels of LC3-II”, the “acridine orange green fluorescence (FL1)” value [6] was “slight increase of green fluorescence” and the LC3 fluorescence intensity [7] was “statistically significant increase in LC3 fluorescence intensity”.
With “Labetuzumab: anti-CEA antibody, directly labeled” the “% change of cell surface expression with IFNγ” value ([8]; RL) was 17.3%, the “% change of cytoplasmic expression with IFNγ” value ([8]; RL) was 37.9% and the “Cell surface expression (staining with directly labeled MAb)” value ([8]; RL + IFNγ 200 U, 48 h) was 2.9. The “Cell surface expression (staining with directly labeled MAb)” value ([8]; RL, without IFN-γ) was 2.4, the “% change of cell surface expression with IFNγ” value ([9]; U118) was 2.4% and the “% change of cytoplasmic expression with IFNγ” value ([9]; U118) was 78.2%. The “Cell surface expression (staining with directly labeled MAb)” value ([9]; U118 + IFNγ 200 U, 48 h) was 5.6, the “Cell surface expression (staining with directly labeled MAb)” value ([9]; U118, without IFN-γ) was 5.5 and the “% change of cell surface expression with IFNγ” value ([10]; Lovo) was 48.6%. The “% change of cytoplasmic expression with IFNγ” value ([10]; Lovo) was 52.4%, the “Cell surface expression (staining with directly labeled MAb)” value ([10]; Lovo + IFNγ 200 U, 48 h) was 84.4 and the “Cell surface expression (staining with directly labeled MAb)” value ([10]; Lovo, without IFN-γ) was 56.8. The “% change of cell surface expression with IFNγ” value ([11]; FSCCL) was 7.6%, the “% change of cytoplasmic expression with IFNγ” value ([11]; FSCCL) was 100.7% and the “Cell surface expression (staining with directly labeled MAb)” value ([11]; FSCCL + IFNγ 200 U, 48 h) was 2.8. The “Cell surface expression (staining with directly labeled MAb)” value ([11]; FSCCL, without IFN-γ) was 2.6, the “Cell surface expression (staining with directly labeled MAb)” value ([12]; Capan + IFNγ 200 U, 48 h) was 48.8 and the “% change of cell surface expression with IFNγ” value ([12]; Capan-1) was −15.1%. The “% change of cytoplasmic expression with IFNγ” value ([12]; Capan-1) was 8.7%, the “Cell surface expression (staining with directly labeled MAb)” value ([12]; Capan-1, without IFN-γ) was 57.5 and the “% change of cell surface expression with IFNγ” value ([13]; KMS11) was 7.1%. For the same compound, the “% change of cytoplasmic expression with IFNγ” value ([13]; KMS11) was −11.4%, the “Cell surface expression (staining with directly labeled MAb)” value ([13]; KMS11 + IFNγ 200 U, 48 h) was 2.3 and the “Cell surface expression (staining with directly labeled MAb)” value ([13]; KMS11, without IFN-γ) was 2.1. The “% change of cell surface expression with IFNγ” value ([14]; BxPC-3) was 25.6%, the “% change of cytoplasmic expression with IFNγ” value ([14]; BxPC-3) was 52.7% and the “Cell surface expression (staining with directly labeled MAb)” value ([14]; BxPC-3 + IFNγ 200 U, 48 h) was 7.0. The “Cell surface expression (staining with directly labeled MAb)” value ([14]; BxPC-3, without IFN-γ) was 5.6, the “% change of cell surface expression with IFNγ” value ([15]; U87) was 23.8% and the “% change of cytoplasmic expression with IFNγ” value ([15]; U87) was 79.0%. The “Cell surface expression (staining with directly labeled MAb)” value ([15]; U87 + IFNγ 200 U, 48 h) was 4.5, the “Cell surface expression (staining with directly labeled MAb)” value ([15]; U87, without IFN-γ) was 3.7 and the “% change of cell surface expression with IFNγ” value ([16]; TU118) was 13.0%. The “% change of cytoplasmic expression with IFNγ” value ([16]; TU118) was 115.5%, the “Cell surface expression (staining with directly labeled MAb)” value ([16]; TU118 + IFNγ 200 U, 48 h) was 5.29 and the “Cell surface expression (staining with directly labeled MAb)” value ([16]; TU118, without IFN-γ) was 4.68. The “% change of cell surface expression with IFNγ” value ([17]; CAG) was 3.0%, the “% change of cytoplasmic expression with IFNγ” value ([17]; CAG) was 27.4% and the “Cell surface expression (staining with directly labeled MAb)” value ([17]; CAG + IFNγ 200 U, 48 h) was 5.2. For the same compound, the “Cell surface expression (staining with directly labeled MAb)” value ([17]; CAG, without IFN-γ) was 5.0, the “% change of cell surface expression with IFNγ” value ([18]; HT29) was 213.5% and the “% change of cytoplasmic expression with IFNγ” value ([18]; HT29) was 122.7%. The “Cell surface expression (staining with directly labeled MAb)” value ([18]; HT29 + IFNγ 200 U, 48 h) was 34.9, the “Cell surface expression (staining with directly labeled MAb)” value ([18]; HT29, without IFN-γ) was 11.1 and the “% change of cell surface expression with IFNγ” value ([19]; Panc-1) was 6.3%. The “% change of cytoplasmic expression with IFNγ” value ([19]; Panc-1) was 161.2%, the “Cell surface expression (staining with directly labeled MAb)” value ([19]; Panc-1 + IFNγ 200 U, 48 h) was 4.4 and the “Cell surface expression (staining with directly labeled MAb)” value ([19]; Panc-1, without IFN-γ) was 4.1. The “% change of cell surface expression with IFNγ” value ([20]; Moser) was 20.9%, the “% change of cytoplasmic expression with IFNγ” value ([20]; Moser) was 41.8% and the “Cell surface expression (staining with directly labeled MAb)” value ([20]; Moser + IFNγ 200 U, 48 h) was 77.2. The “Cell surface expression (staining with directly labeled MAb)” value ([20]; Moser, without IFN-γ) was 63.8, the “% change of cell surface expression with IFNγ” value ([21]; Aspc-1) was 26.3% and the “% change of cytoplasmic expression with IFNγ” value ([21]; Aspc-1) was 53.2%. The “Cell surface expression (staining with directly labeled MAb)” value ([21]; Aspc-1 + IFNγ 200 U, 48 h) was 66.8, the “Cell surface expression (staining with directly labeled MAb)” value ([21]; Aspc-1, without IFN-γ) was 52.9 and the “% change of cell surface expression with IFNγ” value ([22]; LS174T) was 167.9%. The “% change of cytoplasmic expression with IFNγ” value ([22]; LS174T) was 195.9%, the “Cell surface expression (staining with directly labeled MAb)” value ([22]; LS174T + IFNγ 200 U, 48 h) was 163.7 and the “Cell surface expression (staining with directly labeled MAb)” value ([22]; LS174T, without IFN-γ) was 61.1.
In the case of QIEYLAKQIVDNAIQQA [AKAP-IS], the Kd [23] is listed as 0.4 nM.
In the case of QIEYVAKQIVDYAIHQA [SuperAKAP-IS], the “selectivity for RII over RI isoform of PKA” value [24] is listed as “five order of magnitude higher selectivity”.
With “rhodamine-conjugated milatuzumab: fluorescence labeled milatuzumab made with NHS-rhodamine” the “internalization of CD74” value [25] was “rapid internalization of CD74”.
